Experimental data from paper PMC9817970 (Cancers, 2022).

What was measured:
Experiment in all cases: Kinase panel profiling
Assay type in all cases: biochemical
Settings in all cases: 10 μM ATP
[1] = molecular target: T1, JNK3 (Homo sapiens, UniProt P53779)
T1 construct: purchased Reaction Biology Corp
Description: (§1) Kinase panel profiling was conducted by Reaction Biology Corp. (San Diego, CA, USA). A single dose (1.0 μM) of 6r was tested against 371 recombinant human kinases in the presence of 10 μM ATP.

[2] = molecular target: T2, TAOK1 (Homo sapiens, UniProt Q7L7X3)
T2 construct: purchased Reaction Biology Corp
Description: as §1

[3] = molecular target: T3, Aurora A (Homo sapiens, UniProt O14965)
T3 construct: purchased Reaction Biology Corp
Description: as §1

[4] = molecular target: T4, FLT3 (Homo sapiens, UniProt P36888)
T4 construct: purchased Reaction Biology Corp
Description: as §1

[5] = molecular target: T5, ROCK1 (Homo sapiens, UniProt Q13464)
T5 construct: purchased Reaction Biology Corp
Description: as §1

[6] = molecular target: T6, PKG1a (Homo sapiens, UniProt Q13976)
T6 construct: purchased Reaction Biology Corp
Description: as §1

[7] = molecular target: T7, HIPK4 (Homo sapiens, UniProt Q8NE63)
T7 construct: purchased Reaction Biology Corp
Description: as §1

[8] = molecular target: T8, MLCK2/MYLK2 (Homo sapiens, UniProt Q9H1R3)
T8 construct: purchased Reaction Biology Corp
Description: as §1

[9] = molecular target: T9, GRK3 (Homo sapiens, UniProt P35626)
T9 construct: purchased Reaction Biology Corp
Description: as §1

[10] = molecular target: T10, DYRK3 (Homo sapiens, UniProt O43781)
T10 construct: purchased Reaction Biology Corp
Description: as §1

[11] = molecular target: T11, SNARK/NUAK2 (Homo sapiens, UniProt Q9H093)
T11 construct: purchased Reaction Biology Corp
Description: as §1

[12] = molecular target: T12, EGFR (Homo sapiens, UniProt P00533)
T12 construct: purchased Reaction Biology Corp
Description: as §1

[13] = molecular target: T13, PKCg (Homo sapiens, UniProt P05129)
T13 construct: purchased Reaction Biology Corp
Description: as §1

[14] = molecular target: T14, MRCKa/CDC42BPA (Homo sapiens, UniProt Q5VT25)
T14 construct: purchased Reaction Biology Corp
Description: as §1

[15] = molecular target: T15, HCK (Homo sapiens, UniProt P08631)
T15 construct: purchased Reaction Biology Corp
Description: as §1

[16] = molecular target: T16, OSR1/OXSR1 (Homo sapiens, UniProt O95747)
T16 construct: purchased Reaction Biology Corp
Description: as §1

[17] = molecular target: T17, WNK3 (Homo sapiens, UniProt Q9BYP7)
T17 construct: purchased Reaction Biology Corp
Description: as §1

[18] = molecular target: T18, CDK6/cyclin D1 (Homo sapiens, UniProt Q00534)
T18 construct: purchased Reaction Biology Corp
Description: as §1

[19] = molecular target: T19, MASTL (Homo sapiens, UniProt Q96GX5)
T19 construct: purchased Reaction Biology Corp
Description: as §1

[20] = molecular target: T20, BLK (Homo sapiens, UniProt P51451)
T20 construct: purchased Reaction Biology Corp
Description: as §1

[21] = molecular target: T21, CK1a1L (Homo sapiens, UniProt Q8N752)
T21 construct: purchased Reaction Biology Corp
Description: as §1

[22] = molecular target: T22, PKCtheta (Homo sapiens, UniProt Q04759)
T22 construct: purchased Reaction Biology Corp
Description: as §1

[23] = molecular target: T23, VRK2 (Homo sapiens, UniProt Q86Y07)
T23 construct: purchased Reaction Biology Corp
Description: as §1

[24] = molecular target: T24, ERN2/IRE2 (Homo sapiens, UniProt Q76MJ5)
T24 construct: purchased Reaction Biology Corp
Description: as §1

[25] = molecular target: T25, GRK7 (Homo sapiens, UniProt Q8WTQ7)
T25 construct: purchased Reaction Biology Corp
Description: as §1

[26] = molecular target: T26, PDGFRb (Homo sapiens, UniProt P09619)
T26 construct: purchased Reaction Biology Corp
Description: as §1

[27] = molecular target: T27, TLK1 (Homo sapiens, UniProt Q9UKI8)
T27 construct: purchased Reaction Biology Corp
Description: as §1

[28] = molecular target: T28, FLT1/VEGFR1 (Homo sapiens, UniProt P17948)
T28 construct: purchased Reaction Biology Corp
Description: as §1

[29] = molecular target: T29, PHKg1 (Homo sapiens, UniProt Q16816)
T29 construct: purchased Reaction Biology Corp
Description: as §1

[30] = molecular target: T30, EPHB4 (Homo sapiens, UniProt P54760)
T30 construct: purchased Reaction Biology Corp
Description: as §1

[31] = molecular target: T31, c-MET (Homo sapiens, UniProt P08581)
T31 construct: purchased Reaction Biology Corp
Description: as §1

[32] = molecular target: T32, CDK5/P25 (Homo sapiens, UniProt Q00535)
T32 construct: purchased Reaction Biology Corp
Description: as §1

[33] = molecular target: T33, CDK8/cyclin C (Homo sapiens, UniProt P49336)
T33 construct: purchased Reaction Biology Corp
Description: as §1

[34] = molecular target: T34, PAK3 (Homo sapiens, UniProt O75914)
T34 construct: purchased Reaction Biology Corp
Description: as §1

[35] = molecular target: T35, ARK5/NUAK1 (Homo sapiens, UniProt O60285)
T35 construct: purchased Reaction Biology Corp
Description: as §1

[36] = molecular target: T36, KSR1 (Homo sapiens, UniProt Q8IVT5)
T36 construct: purchased Reaction Biology Corp
Description: as §1

[37] = molecular target: T37, AURORA C (Homo sapiens, UniProt Q9UQB9)
T37 construct: purchased Reaction Biology Corp
Description: as §1

[38] = molecular target: T38, PBK/TOPK (Homo sapiens, UniProt Q96KB5)
T38 construct: purchased Reaction Biology Corp
Description: as §1

[39] = molecular target: T39, CAMKK2 (Homo sapiens, UniProt Q96RR4)
T39 construct: purchased Reaction Biology Corp
Description: as §1

[40] = molecular target: T40, MNK1 (Homo sapiens, UniProt Q9BUB5)
T40 construct: purchased Reaction Biology Corp
Description: as §1

[41] = molecular target: T41, PAK4 (Homo sapiens, UniProt O96013)
T41 construct: purchased Reaction Biology Corp
Description: as §1

[42] = molecular target: T42, GRK1 (Homo sapiens, UniProt Q15835)
T42 construct: purchased Reaction Biology Corp
Description: as §1

T17 sequence (Q9BYP7 whole entry): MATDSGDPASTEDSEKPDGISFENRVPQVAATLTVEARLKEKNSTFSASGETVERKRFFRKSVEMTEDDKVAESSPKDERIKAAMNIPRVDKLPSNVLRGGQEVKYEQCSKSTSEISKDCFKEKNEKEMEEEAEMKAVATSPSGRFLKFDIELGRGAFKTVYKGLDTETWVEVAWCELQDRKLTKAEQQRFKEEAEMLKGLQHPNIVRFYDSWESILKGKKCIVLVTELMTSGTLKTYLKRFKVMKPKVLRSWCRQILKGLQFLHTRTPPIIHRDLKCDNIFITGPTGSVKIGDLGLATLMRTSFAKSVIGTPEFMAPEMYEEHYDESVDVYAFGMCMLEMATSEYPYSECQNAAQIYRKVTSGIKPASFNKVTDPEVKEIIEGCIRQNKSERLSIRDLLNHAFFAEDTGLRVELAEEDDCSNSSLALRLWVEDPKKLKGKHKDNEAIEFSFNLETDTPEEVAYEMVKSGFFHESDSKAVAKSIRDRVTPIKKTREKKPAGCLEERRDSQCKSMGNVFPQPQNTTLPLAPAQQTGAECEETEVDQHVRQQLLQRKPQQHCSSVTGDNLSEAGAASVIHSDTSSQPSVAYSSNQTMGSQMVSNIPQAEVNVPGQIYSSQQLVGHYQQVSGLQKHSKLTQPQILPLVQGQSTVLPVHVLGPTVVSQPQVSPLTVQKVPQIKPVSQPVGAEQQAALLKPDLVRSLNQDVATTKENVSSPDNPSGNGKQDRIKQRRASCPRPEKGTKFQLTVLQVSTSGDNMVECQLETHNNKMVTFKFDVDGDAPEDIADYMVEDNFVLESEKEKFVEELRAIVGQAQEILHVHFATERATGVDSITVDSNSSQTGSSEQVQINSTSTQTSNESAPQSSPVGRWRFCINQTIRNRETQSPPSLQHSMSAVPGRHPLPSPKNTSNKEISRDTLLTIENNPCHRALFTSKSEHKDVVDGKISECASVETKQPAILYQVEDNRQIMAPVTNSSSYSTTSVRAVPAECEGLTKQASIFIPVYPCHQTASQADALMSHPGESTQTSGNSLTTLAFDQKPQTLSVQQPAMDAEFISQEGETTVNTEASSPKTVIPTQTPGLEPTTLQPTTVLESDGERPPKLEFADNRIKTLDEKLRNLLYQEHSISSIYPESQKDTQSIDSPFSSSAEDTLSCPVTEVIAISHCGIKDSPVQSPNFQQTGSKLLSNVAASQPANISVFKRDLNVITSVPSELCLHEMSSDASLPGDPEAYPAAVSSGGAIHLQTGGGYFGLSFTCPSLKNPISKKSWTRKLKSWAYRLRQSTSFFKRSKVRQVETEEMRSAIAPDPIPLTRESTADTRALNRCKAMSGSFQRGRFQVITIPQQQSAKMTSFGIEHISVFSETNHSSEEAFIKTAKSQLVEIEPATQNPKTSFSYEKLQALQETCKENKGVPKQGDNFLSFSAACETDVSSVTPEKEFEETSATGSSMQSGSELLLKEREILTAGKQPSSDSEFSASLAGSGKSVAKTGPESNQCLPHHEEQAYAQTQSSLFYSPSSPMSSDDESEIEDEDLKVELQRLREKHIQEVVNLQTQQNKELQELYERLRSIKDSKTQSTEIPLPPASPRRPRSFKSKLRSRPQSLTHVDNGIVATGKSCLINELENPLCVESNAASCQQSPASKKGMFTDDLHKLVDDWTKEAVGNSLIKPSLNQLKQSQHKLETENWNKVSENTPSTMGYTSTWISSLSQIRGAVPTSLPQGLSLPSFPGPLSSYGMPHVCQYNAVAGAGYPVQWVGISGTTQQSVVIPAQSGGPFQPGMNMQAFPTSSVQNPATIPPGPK
T24 sequence (Q76MJ5 35-926): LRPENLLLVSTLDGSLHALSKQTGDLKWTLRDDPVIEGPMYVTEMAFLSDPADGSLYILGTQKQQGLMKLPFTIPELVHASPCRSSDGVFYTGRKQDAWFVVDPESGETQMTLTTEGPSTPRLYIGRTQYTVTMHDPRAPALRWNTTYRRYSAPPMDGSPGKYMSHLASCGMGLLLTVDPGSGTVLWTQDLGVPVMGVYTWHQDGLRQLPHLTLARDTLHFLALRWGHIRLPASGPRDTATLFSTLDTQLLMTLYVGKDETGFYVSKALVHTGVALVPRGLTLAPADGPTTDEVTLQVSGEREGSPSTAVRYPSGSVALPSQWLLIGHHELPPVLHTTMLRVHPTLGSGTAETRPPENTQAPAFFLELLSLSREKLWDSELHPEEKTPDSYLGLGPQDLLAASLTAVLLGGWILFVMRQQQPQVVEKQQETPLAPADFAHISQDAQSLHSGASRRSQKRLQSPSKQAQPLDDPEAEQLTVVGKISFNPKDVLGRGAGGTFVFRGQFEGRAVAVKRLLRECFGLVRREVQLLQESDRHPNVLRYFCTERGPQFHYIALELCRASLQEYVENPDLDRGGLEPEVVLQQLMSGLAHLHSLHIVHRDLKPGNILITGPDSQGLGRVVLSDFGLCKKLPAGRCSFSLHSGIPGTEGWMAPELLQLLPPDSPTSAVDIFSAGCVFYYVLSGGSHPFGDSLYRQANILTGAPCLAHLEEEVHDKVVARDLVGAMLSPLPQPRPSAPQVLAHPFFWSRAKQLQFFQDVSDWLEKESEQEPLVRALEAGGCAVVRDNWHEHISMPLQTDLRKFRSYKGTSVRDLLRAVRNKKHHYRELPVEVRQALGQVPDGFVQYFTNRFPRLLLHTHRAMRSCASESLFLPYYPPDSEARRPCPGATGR
T21 sequence (Q8N752 whole entry): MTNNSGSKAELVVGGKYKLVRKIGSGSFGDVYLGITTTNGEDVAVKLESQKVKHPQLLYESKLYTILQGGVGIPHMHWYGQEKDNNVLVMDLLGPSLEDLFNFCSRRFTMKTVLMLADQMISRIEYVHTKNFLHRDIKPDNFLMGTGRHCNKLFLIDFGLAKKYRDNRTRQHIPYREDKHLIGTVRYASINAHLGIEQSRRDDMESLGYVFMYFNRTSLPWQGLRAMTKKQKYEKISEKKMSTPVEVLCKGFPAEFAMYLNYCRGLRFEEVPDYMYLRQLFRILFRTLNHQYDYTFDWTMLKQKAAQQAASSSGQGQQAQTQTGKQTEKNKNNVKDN
T11 sequence (Q9H093 whole entry): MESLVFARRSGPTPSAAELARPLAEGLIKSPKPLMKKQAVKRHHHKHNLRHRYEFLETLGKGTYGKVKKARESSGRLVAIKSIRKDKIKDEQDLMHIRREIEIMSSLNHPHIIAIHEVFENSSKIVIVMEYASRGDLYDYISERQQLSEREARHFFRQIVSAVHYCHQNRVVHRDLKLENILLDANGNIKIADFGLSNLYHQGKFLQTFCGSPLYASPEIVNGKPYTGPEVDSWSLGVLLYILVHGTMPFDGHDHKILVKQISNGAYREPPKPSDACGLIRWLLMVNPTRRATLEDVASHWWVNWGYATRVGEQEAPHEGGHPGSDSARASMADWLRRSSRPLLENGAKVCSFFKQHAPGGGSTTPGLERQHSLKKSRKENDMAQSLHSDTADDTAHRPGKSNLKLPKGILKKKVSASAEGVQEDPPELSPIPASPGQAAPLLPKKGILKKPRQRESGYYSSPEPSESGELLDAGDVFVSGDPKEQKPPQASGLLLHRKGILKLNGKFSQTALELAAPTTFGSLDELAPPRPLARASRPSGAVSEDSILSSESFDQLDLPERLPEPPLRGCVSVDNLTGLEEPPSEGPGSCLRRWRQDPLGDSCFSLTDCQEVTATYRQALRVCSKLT
T35 sequence (O60285 whole entry): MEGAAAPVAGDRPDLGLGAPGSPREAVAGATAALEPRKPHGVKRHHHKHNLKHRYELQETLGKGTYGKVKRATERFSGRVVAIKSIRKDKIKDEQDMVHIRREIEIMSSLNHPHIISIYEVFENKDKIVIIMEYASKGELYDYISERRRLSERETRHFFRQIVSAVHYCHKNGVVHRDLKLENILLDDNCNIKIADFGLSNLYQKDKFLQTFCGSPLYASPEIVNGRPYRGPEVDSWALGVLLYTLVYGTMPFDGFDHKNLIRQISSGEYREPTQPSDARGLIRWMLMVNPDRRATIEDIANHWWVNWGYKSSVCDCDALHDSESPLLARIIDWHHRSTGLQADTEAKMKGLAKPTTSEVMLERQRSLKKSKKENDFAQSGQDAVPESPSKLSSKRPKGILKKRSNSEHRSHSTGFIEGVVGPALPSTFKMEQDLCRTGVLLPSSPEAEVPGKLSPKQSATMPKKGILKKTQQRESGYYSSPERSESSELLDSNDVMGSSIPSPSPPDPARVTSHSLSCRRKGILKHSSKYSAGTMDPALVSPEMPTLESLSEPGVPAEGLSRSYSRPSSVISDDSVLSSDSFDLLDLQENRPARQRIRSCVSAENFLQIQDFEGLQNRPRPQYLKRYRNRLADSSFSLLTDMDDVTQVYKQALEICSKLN
T32 sequence (Q00535 whole entry): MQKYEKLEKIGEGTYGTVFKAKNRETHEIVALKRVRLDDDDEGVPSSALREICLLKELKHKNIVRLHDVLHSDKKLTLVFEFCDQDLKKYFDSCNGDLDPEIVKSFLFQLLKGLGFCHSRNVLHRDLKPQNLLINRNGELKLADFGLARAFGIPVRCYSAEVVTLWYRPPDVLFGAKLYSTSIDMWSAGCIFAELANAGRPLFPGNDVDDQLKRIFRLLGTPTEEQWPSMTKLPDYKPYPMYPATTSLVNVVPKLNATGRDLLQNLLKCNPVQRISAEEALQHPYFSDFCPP
T32 sequence (Q15078 99-307 partner limits assumed): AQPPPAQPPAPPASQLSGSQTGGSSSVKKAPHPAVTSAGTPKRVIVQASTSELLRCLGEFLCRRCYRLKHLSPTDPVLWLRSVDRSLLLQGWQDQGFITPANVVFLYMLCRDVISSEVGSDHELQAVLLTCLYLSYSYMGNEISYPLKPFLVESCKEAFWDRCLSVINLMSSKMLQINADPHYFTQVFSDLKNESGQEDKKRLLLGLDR

Compound: Cc1ccc(NC(=O)c2ccc(CN3CCN(C)CC3)c(C(F)(F)F)c2)cc1-c1cnc2sc(N)nc2c1 [6r]
- inhibition at 1 µM [1]: 5.1%
- inhibition at 1 µM [2]: 6.1%
- inhibition at 1 µM [3]: 0%
- inhibition at 1 µM [4]: 0%
- inhibition at 1 µM [5]: 0.2%
- inhibition at 1 µM [6]: 10.1%
- inhibition at 1 µM [7]: 8.7%
- inhibition at 1 µM [8]: 4.8%
- inhibition at 1 µM [9]: 0%
- inhibition at 1 µM [10]: 0%
- inhibition at 1 µM [11]: 0%
- inhibition at 1 µM [12]: 21.4%
- inhibition at 1 µM [13]: 0.7%
- inhibition at 1 µM [14]: 0%
- inhibition at 1 µM [15]: 83.1%
- inhibition at 1 µM [16]: 5.5%
- inhibition at 1 µM [17]: 7.1%
- inhibition at 1 µM [18]: 9.1%
- inhibition at 1 µM [19]: 1.3%
- inhibition at 1 µM [20]: 84.8%
- inhibition at 1 µM [21]: 8.5%
- inhibition at 1 µM [22]: 6.9%
- inhibition at 1 µM [23]: 20.1%
- inhibition at 1 µM [24]: 12.9%
- inhibition at 1 µM [25]: 7.5%
- inhibition at 1 µM [26]: 94.2%
- inhibition at 1 µM [27]: 0%
- inhibition at 1 µM [28]: 63.7%
- inhibition at 1 µM [29]: 19.6%
- inhibition at 1 µM [30]: 27.3%
- inhibition at 1 µM [31]: 2.7%
- inhibition at 1 µM [32]: 8.7%
- inhibition at 1 µM [33]: 0%
- inhibition at 1 µM [34]: 8.3%
- inhibition at 1 µM [35]: 14.7%
- inhibition at 1 µM [36]: 5.5%
- inhibition at 1 µM [37]: 4.9%
- inhibition at 1 µM [38]: 4.3%
- inhibition at 1 µM [39]: 20.5%
- inhibition at 1 µM [40]: 0%
- inhibition at 1 µM [41]: 8.6%
- inhibition at 1 µM [42]: 16.7%
